Where a chain is given by its changes, count along the chain named.
Assays:
[1] = target: T1, AtPPO1 S305L V365M (SEQ ID NO.128) (Arabidopsis thaliana, UniProt P55826, S305L/V365M); test: fluorescent Protoporphyrinogen Oxidase assay, crude extract; type: biochemical; conditions: read-out: percentage inhibition
T1 construct: made in house; host or cells: E. coli BL21 (DE3) hemG, crude extract
T1 sequence (P55826 35-537 S305L/V365M): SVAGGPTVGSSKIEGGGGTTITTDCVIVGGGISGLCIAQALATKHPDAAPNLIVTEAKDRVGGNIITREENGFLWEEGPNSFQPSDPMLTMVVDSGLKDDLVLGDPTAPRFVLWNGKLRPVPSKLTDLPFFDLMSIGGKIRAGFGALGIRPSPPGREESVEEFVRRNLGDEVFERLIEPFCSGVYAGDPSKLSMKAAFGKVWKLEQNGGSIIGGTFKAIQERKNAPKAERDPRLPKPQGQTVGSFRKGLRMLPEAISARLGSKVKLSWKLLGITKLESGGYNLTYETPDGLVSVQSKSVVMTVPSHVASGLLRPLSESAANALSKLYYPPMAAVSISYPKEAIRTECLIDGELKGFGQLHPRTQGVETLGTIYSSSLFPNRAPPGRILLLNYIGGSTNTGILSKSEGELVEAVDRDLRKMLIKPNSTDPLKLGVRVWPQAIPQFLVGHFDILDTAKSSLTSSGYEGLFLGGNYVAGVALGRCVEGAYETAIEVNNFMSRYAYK
Protocol: (§1) A pET24 plasmid containing a DNA sequence encoding each identified variant mutant of AtPPO1 derived from Arabidopsis thaliana, codon-optimised for expression in E. coli, and under control of a T7 promoter, was synthesised by Twist Bioscience. This plasmid was expressed in E. coli BL21 (DE3) hemG with 50 μg/mL kanamycin and 25 μg/mL chloramphenicol selection. Overnight cultures grown at 37° C. were used to inoculate 150 ml AIM (AIM-Terrific Broth Base including Trace elements, Formedium) in 500 ml shake flasks at a ratio of 1:100. Cultures were grown at 37° C., 200 rpm for 3 hours and then overnight at 26° C. Cells were harvested by 4° C. centrifugation for 20 minutes at 600 rpm. Cells were stored at −80° C. until extraction. 0.5-1 g of cell pellet from was thawed and resuspended in ratio of 1:1 in lysis buffer (20 mM Tris pH8, 500 mM sodium chloride, 10% glycerol, 1× complete Protease EDTA-free Inhibitor Tablet (Roche)). The resuspension was sonicated at 50% using 10-20 cycles of 10 seconds, 20 seconds off. After sonication Triton X-100 was added to the lysates at a final concentration of 0.5%. The lysates were centrifuged at 13.00 rpm for 10 min at 4° C. The crude extracts (i.e, supernatants) were stored at −80° C. Protein concentration was measured and calculated using the absorbance at 280 nm. Extracts were diluted 1 in 4 and 10 uL was analysed by SDS PAGE.
(§2) Variant crude extracts were assayed in a fluorescent Protoporphyrinogen Oxidase assay in black 384 well plates with a clear bottom. The total volume of the reaction mixture was 100 ul and contained 100 mM K2HPO4 pH7.2, 1 mM Na2EDTA, 5 mM DTT, 20% glycerol (v/v), 0.025% Tween 20 (v/v). Reactions were started with addition of 1 uM protoporphyrinogen IX final assay concentration. Fluorescence was monitored over 30 min using a Tecan plate reader with an excitation wavelength of 405 nm, emission wavelength of 635 nm, gain of 90 and 15 flashes. 10 ul of 3-fold serial dilution of crude extract in 100 mM K2HPO4 pH7.2, 1 mM Na2EDTA, 5 mM DTT, 20% glycerol (v/v), 0.05% Tween 20 (v/v) was tested in the assay against 1% DMSO and 100 ppm herbicide B to determine the correct amount of crude extract to add to the assay to observe activity. 10 ul of the appropriate crude extract dilution was then tested in the fluorescent Protoporphyrinogen Oxidase assay against DMSO and 10-fold dose response of each compound (herbicides A to E) with a top rate of 100 ppm.
(§3) The percentage inhibition was calculated as the activity in the presence of one of four concentrations of each herbicide compound A to E (note that the compounds labelled as A to E are identified hereinabove in the relevant section of the description) as a percentage of the enzyme activity in DMSO (Table 5).

[2] = target: T2, AtPPO1 Y361D V365L (SEQ ID NO.135) (Arabidopsis thaliana, UniProt P55826, V365L/Y361D); test: as above; type: biochemical; conditions: for inhibition at 0.1 ppm / inhibition at 1 ppm / inhibition at 10 ppm / inhibition at 100 ppm: read-out: percentage inhibition; for improvement over SEQ ID NO:124: AtPPO1 Y361D V365L (SEQ ID NO:135) vs SEQ ID NO:124
T2 construct: made in house; host or cells: E. coli BL21 (DE3) hemG, crude extract
T2 sequence (P55826 35-537 Y361D/V365L): T1 sequence (P55826 35-537 S305L/V365M) with L271S, Y327D, M331L
Protocol: as §1, §2, §3

| Structure (SMILES) | inhibition at 0.1 ppm [1] [%] | inhibition at 1 ppm [1] [%] | inhibition at 10 ppm [1] [%] | inhibition at 100 ppm [1] [%] | inhibition at 0.1 ppm [2] [%] | inhibition at 1 ppm [2] [%] | inhibition at 10 ppm [2] [%] | inhibition at 100 ppm [2] [%] | improvement over SEQ ID NO:124 [2] |
| --- | --- | --- | --- | --- | --- | --- | --- | --- | --- |
| CCOC(=O)COc1ncccc1Oc1cc(-n2c(=O)cc(C(F)(F)F)n(C)c2=O)c(F)cc1Cl [Herbicide A, epyrifenacil] | 41 | 64 | 92 | 91 | 56 | 89 | 99 | 96 | – |
| C#CCN1C(=O)C(F)(F)Oc2cc(F)c(-n3c(=O)n(C)c(=S)n(C)c3=O)cc21 [Herbicide B, trifludimoxazin] | 100 | 97 | 95 | 100 | 82 | 100 | 100 | 100 | improvement over SEQ ID NO:124 was seen |
| CCOC(=O)C1(C)CC(c2cc(-n3c(=O)cc(C(F)(F)F)n(C)c3=O)c(F)cc2Cl)=NO1 (centres unmarked) [Herbicide C, 3-(2-chloro-4-fluoro-5-(3-methyl-2,6-dioxo-4-trifluoromethyl-3,6-dihydropyrimidin-1(2H)-yl)phenyl)-5-methyl-4,5-dihydroisoxazole-5-carboxylic acid ethyl ester] | 45 | 76 | 95 | 100 | 30 | 84 | 94 | 100 | improvement over SEQ ID NO:124 was seen |
| CCOC(=O)[C@]1(C)CC(c2cc(-n3c(=O)n(C)c(=S)n(C)c3=O)c(F)cc2Cl)=NO1 [Herbicide D, ethyl (5S)-3-[2-chloro-5-(3,5-dimethyl-2,6-dioxo-4-thioxo-1,3,5-triazinan-1-yl)-4-fluoro-phenyl]-5-methyl-4H-isoxazole-5-carboxylate] | 51 | 84 | 96 | 100 | 2 | 63 | 93 | 100 | improvement over SEQ ID NO:124 was seen |
| CC(C)N(C)S(=O)(=O)NC(=O)c1cc(-n2c(=O)cc(C(F)(F)F)n(C)c2=O)c(F)cc1Cl [Herbicide E, saflufenacil] | 0 | 71 | 91 | 100 | 0 | 31 | 83 | 100 | improvement over SEQ ID NO:124 was seen |
